In assay [1] the test system is Setaria viridis. Briefly: Post-emergence herbicidal action. The format is in vivo. Particulars: Setaria viridis, 504 h, 320 g/ha, about 3 weeks after treatment, read-out: Setaria viridis, herbicidal activity rated visually. As to the method:
(§1) Seeds of monocotyledonous and dicotyledonous weeds and crop plants were placed in sandy loam in plastic or wood-fiber pots, covered with soil and cultivated in a greenhouse under controlled growth conditions. 2 to 3 weeks after sowing, the test plants were treated at the one-leaf stage. The compounds of the invention, formulated in the form of wettable powders (WP) or as emulsion concentrates (EC), were then sprayed onto the green parts of the plants as aqueous suspension or emulsion with addition of 0.5% additive at a water application rate of 600 l/ha (converted). After the test plants had been kept in the greenhouse under optimum growth conditions for about 3 weeks, the activity of the preparations was rated visually in comparison to untreated controls. For example, 100% activity=the plants have died, 0% activity=like control plants. Tables A1 to A12 below show the effects of selected compounds of the general formula (I) according to Tables I.1 to I.44 on various harmful plants and an application rate corresponding to 1280 g/ha or 320 g/ha, which were obtained by the experimental procedure mentioned above.

The subject of assay [2] is Stellaria media. Briefly: Post-emergence herbicidal action. The format is in vivo. Particulars: Stellaria media, 504 h, 320 g/ha, about 3 weeks after treatment, read-out: Stellaria media, herbicidal activity rated visually. Here is the method: as §1
For assay [3], the system named is Viola tricolor. Briefly: Post-emergence herbicidal action. Particulars: 504 h, 320 g/ha, about 3 weeks after treatment, read-out: Viola tricolor, herbicidal activity rated visually. The format is in vivo. As to the method: as §1
The subject of assay [4] is Matricaria inodora. Nature of the assay: Pre-emergence herbicidal action. The format is in vivo. Particulars: 1280 g/ha, after about 3 weeks. An excerpt: (§2) Seeds of monocotyledonous and dicotyledonous weed plants and crop plants were placed in plastic or organic planting pots and covered with soil. The compounds of the invention, formulated in the form of wettable powders (WP) or as emulsion concentrates (EC), were then applied onto the surface of the covering soil as aqueous suspension or emulsion with addition of 0.5% additive at a water application rate of 600 l/ha (converted). After the treatment, the pots were placed in a greenhouse and kept under good growth conditions for the test plants. After about 3 weeks, the effect of the preparations was scored visually in comparison with untreated controls as percentages. For example, 100% activity=the plants have died, 0% activity=like control plants. Tables B1 to B15 below show the effects of selected compounds of the general formula (I) according to Tables I.1 to I.44 on various harmful plants and an application rate corresponding to 1280 g/ha or 320 g/ha, which were obtained by the experimental procedure mentioned above.

The test system of assay [5] is Stellaria media. Nature of the assay: Pre-emergence herbicidal action. The format is in vivo. Particulars: after about 3 weeks.
Excerpt: as §2

In assay [6] the test system is Viola tricolor. Briefly: Pre-emergence herbicidal action. It is filed as in vivo. Particulars: Viola tricolor, 504 h, 320 g/ha, after about 3 weeks, read-out: Viola tricolor, herbicidal effect scored visually.
Excerpt: as §2

The target in assay [7] is T1, photosystem II (PS II) (Spinacia oleracea, UniProt P69560).
T1 construct: the chloroplasts were osmotically ruptured and the thylakoid membranes were then obtained by centrifugation; from tissue; host or cells: fresh spinach leaves; thylakoid membranes isolated from chloroplasts
Briefly: Measurement of the PS II activity in thylakoid membranes (DCPIP reduction). The format is biochemical. Particulars: 100 μM test compound, spinach thylakoid membranes, DCPIP 120 μM, 10 min at 22° C. with exposure to light; for inhibition at 100 µM (stock): read-out: Effect (inhibition of PS II activity). Here is the method:
Cooled fresh spinach leaves were comminuted and homogenized in 50 mM phosphate buffer, pH 6.8. 10 mM KCl, 0.34 M sucrose (sucrose buffer) (blender, 1 g of plant material/ml). The homogenate was subsequently filtered through 4 layers of Miracloth and the chloroplasts were isolated by centrifugation, i.e. 10 min of centrifugation at 4400×g (4° C.). The sediment was suspended in 25 ml of sucrose buffer and re-centrifuged for 10 min at 4400×g (4° C.). The sediment was then suspended in 40 ml of 50 mM phosphate buffer, pH 6.8, 10 mM KCl, without sucrose. In this step, the chloroplasts were osmotically ruptured and the thylakoid membranes were then obtained by centrifugation (10 min, 4400×g, 4° C.). The membrane sediment was finally suspended in 20 ml of 50 mM phosphate buffer, pH 6.8, 10 mM KCl. Following protein determination and activity determination, the membrane suspension was divided into aliquots and frozen in liquid nitrogen. The aliquots were stored at −80° C. Under these conditions, the photosystem II preparation was storage stable for at least three months. The activity determination of photosystem II (PS II) was then carried out using the following test principle:
The electron transfer from PS II to an artificial electron acceptor, 2,6-dichlorophenolindophenol (DCPIP), was measured with exposure to light. The concentration of the blue oxidized form of DCPIP was determined spectrophotometrically at wavelength λ=595 nm. […] The activity determination was carried out in microtiter plates (96 cavities) in a reaction volume of 200 μl. Here, 155 μl of dilute membrane suspension were initially charged in 50 mM of phosphate buffer, pH 6.8, 10 mM KCl. Depending on the activity of the PS II preparation, the dilution was adjusted such that the measurement of the decrease in absorption (λ=595 nm) was linear for at least 10 min. In each case 5 μl solution of the test compounds of a concentration of 100 μM in DMSO were added to the enzyme suspension; controls contained 5 μl DMSO; the final concentration of DMSO in the reaction batch was thus 2.5% (v/v); this concentration had no adverse effect on the enzymatic activity. On each microtiter plate, a known PS II inhibitor, for example metribuzin, was used as standard, which allowed the quality of the PS II test to be assessed. The reaction was started by addition of 40 μl DCPIP solution (600 μM in distilled water); the final concentration of DCPIP was 120 μM. Measurement of absorption was carried out over a period of 10 min at 22° C. and with exposure to light. Using metribuzin as comparative substance, the results for the efficacy of the compounds of the general formula (I) at 100 μM are stated in the table below using the following classification: ++++ (inhibition≥90%), +++ ([…]≥70%), ++ (70%>inhibition≥50%), + (50%>inhibition≥30%).

Assay [8] concerns Abutilon theophrasti. Briefly: Post-emergence herbicidal action. The format is in vivo. Particulars: 320 g/ha, about 3 weeks after treatment. As to the method:
as §1

The test system of assay [9] is Poa annua. Nature of the assay: Pre-emergence herbicidal action. The format is in vivo. Particulars: 1280 g/ha, after about 3 weeks.
Excerpt: as §2

Assay [10] concerns Setaria viridis. Briefly: Pre-emergence herbicidal action. The format is in vivo. Particulars: 1280 g/ha, after about 3 weeks.
Excerpt: as §2

For orientation: inhibition means the share of the control response that was lost under treatment. As for `CCc1nsc(N2C(=O)C(C)=C(C)C2O)n1` (stereo not shown) [I.2-3, 3,4-Dimethyl-5-hydroxy-1-(3-ethyl-1,2,4-thiadiazol-5-yl)-1,5-dihydro-2H-pyrrol-2-one], the pest or weed control at 320 g/ha in [1] was 80%; in assay [2] it was 80%; in assay [3] it was 100%; in assay [5] (Stellaria media, 504 h, 320 g/ha, read-out: Stellaria media, herbicidal effect scored visually) it was 90%; in [6], 100%. Further, the pest or weed control at 1280 g/ha in [4] (Tripleurospermum inodorum, 504 h, read-out: Matricaria inodora, herbicidal effect scored visually) came out at 100%. Moreover, in [7], the inhibition at 100 µM (stock) was greater than 90%.

As to `CC1=C(C)C(O)N(c2nc(-c3ccccc3)ns2)C1=O` (stereo not shown) [I.2-21], the “Abutilon theophrasti, herbicidal activity rated visually” value in assay [8] was 100%. Also, the “Matricaria inodora, herbicidal effect scored visually” value in assay [4] was 90%. Moreover, in assay [9], the “Poa annua, herbicidal effect scored visually” value came to 90%. Moreover, the “Stellaria media, herbicidal effect scored visually” value in [5] (1280 g/ha) turned out to be 100%. Besides, the “Effect (inhibition of PS II activity)” value in assay [7] is recorded as “+++ (90%≥inhibition≥70%)”.

Consider `COc1ccc(-c2nsc(N3C(=O)C(C)=C(C)C3O)n2)cc1` (stereo not shown) [I.2-83], for which, in [7], the “Effect (inhibition of PS II activity)” value is listed as “++++ (inhibition≥90%)”.

Regarding `COCc1nsc(N2C(=O)C(C)=C(C)C2O)n1` (stereo not shown) [I.2-122, 3,4-Dimethyl-5-hydroxy-1-(3-methoxymethyl-1,2,4-thiadiazol-5-yl)-1,5-dihydro-2H-pyrrol-2-one], the inhibition at 100 µM (stock) in assay [7] is 50 to 70%.

With `CC1=C(C)C(O)N(c2nc(C(C)(C)C)ns2)C1=O` (stereo not shown) [I.2-288], the “Matricaria inodora, herbicidal effect scored visually” value in [4] is 90%. For the same compound, in [9], the “Poa annua, herbicidal effect scored visually” value worked out at 90%. The “Setaria viridis, herbicidal effect scored visually” value in assay [10] worked out at 100%. Further, the “Stellaria media, herbicidal effect scored visually” value in [5] (1280 g/ha) is reported as 100%. In assay [7], the “Effect (inhibition of PS II activity)” value is recorded as “+++ (90%≥inhibition≥70%)”.

Consider `CC1=C(C)C(O)N(c2nc(C3(C)CC3)ns2)C1=O` (stereo not shown) [I.2-335], for which the “Effect (inhibition of PS II activity)” value in [7] is “++++ (inhibition≥90%)”.

In the case of `CC1=C(C)C(O)N(c2nc(SCCOC(F)(F)C(F)(F)F)ns2)C1=O` (stereo not shown) [I.2-339], the “Effect (inhibition of PS II activity)” value in assay [7] is given as “++++ (inhibition≥90%)”.

Consider `CCCc1nsc(N2C(=O)C(Cl)=C(C)C2O)n1` (stereo not shown) [I.3-4], for which the “Effect (inhibition of PS II activity)” value in [7] is “++++ (inhibition≥90%)”.

Take `COCc1nsc(N2C(=O)C(Cl)=C(C)C2O)n1` (stereo not shown) [I.3-122]: the “Effect (inhibition of PS II activity)” value in [7] was “+++ (90%≥inhibition≥70%)”.

In the case of `CC1=C(Cl)C(=O)N(c2nc(C3(C)CC3)ns2)C1O` (stereo not shown) [I.3-335, 3-Chloro-4-methyl-5-hydroxy-1-[3-(1-methylcycloprop-1-yl)-1,2,4-thiadiazol-5-yl]-1,5-dihydro-2H-pyrrol-2-one], the inhibition at 100 µM (stock) in assay [7] is greater than 90%.

In the case of `CC1=C(Cl)C(O)N(c2nc(C)ns2)C1=O` (stereo not shown) [I.4-2], the “Effect (inhibition of PS II activity)” value in [7] is on record as “+++ (90%≥inhibition≥70%)”.

For the compound `CCc1nsc(N2C(=O)C(C)=C(Cl)C2O)n1` (stereo not shown) [I.4-3], the “Effect (inhibition of PS II activity)” value in [7] was “++++ (inhibition≥90%)”.

For `CCCc1nsc(N2C(=O)C(C)=C(Cl)C2O)n1` (stereo not shown) [I.4-4], in assay [7], the “Effect (inhibition of PS II activity)” value is recorded as “++++ (inhibition≥90%)”.

On to `CC1=C(Cl)C(O)N(c2nc(C3CC3)ns2)C1=O` (stereo not shown) [I.4-11, 4-chloro-3-methyl-5-hydroxy-1-(3-cyclopropyl-1,2,4-thiadiazol-5-yl)-1,5-dihydro-2H-pyrrol-2-one], for which, in [7], the inhibition at 100 µM (stock) is greater than 90%.

On to `CC1=C(Cl)C(O)N(c2nc(C3(C)CC3)ns2)C1=O` (stereo not shown) [I.4-335, 4-chloro-3-methyl-5-hydroxy-1-[3-(1-methylcycloprop-1-yl)-1,2,4-thiadiazol-5-yl]-1,5-dihydro-2H-pyrrol-2-one], for which the inhibition at 100 µM (stock) in assay [7] is 50 to 70%.

Turning to `COc1nsc(N2C(=O)C(C)=C(Cl)C2O)n1` (stereo not shown) [I.4-363], in assay [7], the “Effect (inhibition of PS II activity)” value is “++++ (inhibition≥90%)”.

For the compound `COC(C)(C)c1nsc(N2C(=O)C(C)=C(Cl)C2O)n1` (stereo not shown) [I.4-370, 4-Chloro-3-methyl-5-hydroxy-1-[3-(2-methoxyprop-2-yl)-1,2,4-thiadiazol-5-yl]-1,5-dihydro-2H-pyrrol-2-one], the pest or weed control at 1280 g/ha in [5] (Stellaria media, 504 h, 1280 g/ha, read-out: Stellaria media, herbicidal effect scored visually) stood at 100%.

For the compound `CCc1nsc(N2C(=O)C(Br)=C(C)C2O)n1` (stereo not shown) [I.5-3], the “Effect (inhibition of PS II activity)” value in assay [7] is reported as “++++ (inhibition≥90%)”.

Turning to `CCCc1nsc(N2C(=O)C(Br)=C(C)C2O)n1` (stereo not shown) [I.5-4], in [7], the “Effect (inhibition of PS II activity)” value is reported as “++++ (inhibition≥90%)”.

With `CCc1nsc(N2C(=O)C(C)=C(Br)C2O)n1` (stereo not shown) [I.6-3], in assay [7], the “Effect (inhibition of PS II activity)” value was “++++ (inhibition≥90%)”.

As for `CCCc1nsc(N2C(=O)C(C)=C(Br)C2O)n1` (stereo not shown) [I.6-4], the “Effect (inhibition of PS II activity)” value in assay [7] is on record as “++++ (inhibition≥90%)”.

In the case of `CC1=C(Br)C(O)N(c2nc(C3CC3)ns2)C1=O` (stereo not shown) [I.6-11], the “Effect (inhibition of PS II activity)” value in assay [7] is on record as “++++ (inhibition≥90%)”.

Turning to `O=C1C(Cl)=C(C2CCCCC2)C(O)N1c1nc(C2CC2)ns1` (stereo not shown) [I.9-11], in assay [7], the “Effect (inhibition of PS II activity)” value is “++ (70%>inhibition≥50%)”.

As to `CC(C)c1nsc(N2C(=O)C(C3CCCCC3)=C(Cl)C2O)n1` (stereo not shown) [I.10-5], the “Effect (inhibition of PS II activity)” value in assay [7] is reported as “+++ (90%≥inhibition≥70%)”.

Take `CCc1nsc(N2C(=O)N(C)CC2O)n1` (stereo not shown) [I.13-3]: the “Effect (inhibition of PS II activity)” value in assay [7] is “+++ (90%≥inhibition≥70%)”.

In the case of `CN1CC(O)N(c2nc(C(C)(C)C)ns2)C1=O` (stereo not shown) [I.13-288], the “Effect (inhibition of PS II activity)” value in [7] is listed as “++ (70%>inhibition≥50%)”.

Values taken from patent US20200095241A1, “SUBSTITUTED 1,2,4-THIADIAZOLYLPYRROLONES AND 1,2,4-THIADIAZOLYLHYDANTOINS AND SALTS THEREOF AND USE THEREOF AS HERBICIDES” (Bayer CropScience Aktiengesellschaft, priority 2016, published 2020).
